Key:
HEK-293T = test: Cytotoxicity against HEK293T cells assessed as cell growth inhibition after 48 hrs by MTT assay; type: cell-based; conditions: Homo sapiens
MDA-MB-231 = test: Cytotoxicity against human MDA-MB-231 cells assessed as cell growth inhibition after 48 hrs by MTT assay; type: functional, cell-based; conditions: MDA-MB-231, 48 h
HT-1080 = test: Cytotoxicity against human HT1080 cells assessed as cell growth inhibition after 48 hrs by MTT assay; type: functional, cell-based; conditions: HT-1080, 48 h
A549 = test: Cytotoxicity against human A549 cells assessed as cell growth inhibition after 48 hrs by MTT assay; type: functional, cell-based; conditions: A549, 48 h
HeLa = test: Cytotoxicity against human HeLa cells assessed as cell growth inhibition after 48 hrs by MTT assay; type: functional, cell-based
PC-3 = test: Cytotoxicity against human PC3 cells assessed as cell growth inhibition after 48 hrs by MTT assay; type: functional, cell-based; conditions: PC-3, 48 h
[1] = Selectivity index, ratio of IC50 for HEK293T cells to IC50 for human HT1080 cells; type: toxicity; conditions: HEK293T cells versus HT1080 cells, read-out: Ratio IC50
[2] = Selectivity index, ratio of IC50 for HEK293T cells to IC50 for human A549 cells; type: toxicity; conditions: HEK293T cells versus A549 cells, read-out: Ratio IC50
[3] = Selectivity index, ratio of IC50 for HEK293T cells to IC50 for human HeLa cells; type: toxicity; conditions: HEK293T cells versus HeLa cells, read-out: Ratio IC50
[4] = Selectivity index, ratio of IC50 for HEK293T cells to IC50 for human PC3 cells; type: toxicity; conditions: HEK293T cells versus PC3 cells, read-out: Ratio IC50
[5] = Selectivity index, ratio of IC50 for HEK293T cells to IC50 for human MDA-MB-231 cells; type: toxicity; conditions: HEK293T cells versus MDA-MB-231 cells, read-out: Ratio IC50

| SMILES | IC50 (HEK-293T) | IC50 (MDA-MB-231) | IC50 (HT-1080) | IC50 (A549) | IC50 (HeLa) | IC50 (PC-3) | selectivity ratio [1] | selectivity ratio [2] | selectivity ratio [3] | selectivity ratio [4] | selectivity ratio [5] |
| --- | --- | --- | --- | --- | --- | --- | --- | --- | --- | --- | --- |
| COc1cc(-c2nc3cc(/C=C4\SC(=O)N(CC(=O)N5CCCC5)C4=O)ccc3[nH]2)cc(OC)c1OC | 12.7 µM | 2.88 µM | 2.47 µM | 0.91 µM | 4.78 µM | 8.37 µM |  |  |  |  |  |
| COc1cc(-c2nc3cc(/C=C4\SC(=O)NC4=O)ccc3[nH]2)ccc1OCC(C)C | 14.1 µM | 7.78 µM | 4.45 µM | 5.11 µM | 5.22 µM | 2.98 µM |  |  |  |  |  |
| COc1ccc(-c2nc3cc(/C=C4\SC(=O)N(CC(=O)N5CCOCC5)C4=O)ccc3[nH]2)cc1OC | > 50 µM | > 50 µM | 3.32 µM | 8.93 µM | 7.51 µM | > 50 µM |  |  |  |  |  |
| COc1cc(OC)c(-c2nc3cc(/C=C4\SC(=O)NC4=O)ccc3[nH]2)cc1OC | 15.3 µM | 24.5 µM | 6.35 µM | 1.84 µM | 15.4 µM | 6.32 µM |  |  |  |  |  |
| COc1cc(OC)c(-c2nc3cc(/C=C4\SC(=O)N(CC(=O)N5CCOCC5)C4=O)ccc3[nH]2)cc1OC | 35.7 µM | 21.3 µM | 1.12 µM | 0.66 µM | 0.51 µM | 11.7 µM |  |  |  |  |  |
| COc1cc(-c2nc3cc(/C=C4\SC(=O)N(CC(=O)N5CCCCC5)C4=O)ccc3[nH]2)cc(OC)c1OC | 21.5 µM | 34.9 µM | 3.65 µM | 0.98 µM | 23.3 µM | 14.7 µM |  |  |  |  |  |
| COc1cc(-c2nc3cc(/C=C4\SC(=O)N(CC(=O)c5ccccc5)C4=O)ccc3[nH]2)cc(OC)c1OC | 13.6 µM | > 50 µM | 0.57 µM | 0.88 µM | 26.3 µM | > 50 µM |  |  |  |  |  |
| COc1cc(OC)c(-c2nc3cc(/C=C4\SC(=O)N(Cc5cccc(C)c5)C4=O)ccc3[nH]2)cc1OC | 3.35 µM | 1.78 µM | 0.19 µM | 0.13 µM | 0.18 µM | 0.63 µM | 17.6 | 25.8 | 18.6 | 5.3 | 1.9 |
| COc1ccc(-c2nc3cc(/C=C4\SC(=O)NC4=O)ccc3[nH]2)cc1OC | 21.7 µM | 13.6 µM | 2.43 µM | 0.57 µM | 7.83 µM | 8.72 µM |  |  |  |  |  |

Source: ChEMBL document CHEMBL4190240, “Conventional and microwave-assisted synthesis of new 1H-benzimidazole-thiazolidinedione derivatives: A potential anticancer scaffold” (Eur J Med Chem, 2017)
